Results on 68 molecules are retold here after US20240287079A1, “6-AMINOPYRAZOLOPYRIMIDINE COMPOUND AND PHARMACEUTICAL USE THEREOF” (Japan Tobacco Inc., priority 2021, published 2024).

pIC50: −log10 of the molar value.

The target in one assay is NLRP3 inflammasome (Homo sapiens (Human), UniProt Q96P20). As to the kind of experiment: Evaluation of NLRP3 inflammasome inhibitory activity (inhibition of IL-1β production in LPS/Nigericin-stimulated THP1-Null cells). Type of assay: cell-based. To be noted: IL-1β production in THP1-Null cells, PMA, LPS 1 μg/mL, Nigericin 7.5 μmol/L, AlphaLISA. The protocol: The NLRP3 inflammasome inhibitory activity of test compounds were evaluated on the basis of the inhibitory activity of the IL-1β production in THP1-Null cells (Product Number: thp-null, InvivoGen). […] The supernatant of the culture was removed, and thereto was added media for assay (25 μL/well) containing 1 μg/mL Lipopolysaccharides (Product Number: L2654, Sigma-Aldrich (registered trademark)). […] The supernatant of the culture was removed. […] A solution containing a test compound (20 μL/well) was added to test compound-setting wells. […] The supernatant of the culture was cryonically stored (set at −20° C.) until measurement of IL-1β.
Chain of NLRP3 inflammasome (Q96P20 whole entry): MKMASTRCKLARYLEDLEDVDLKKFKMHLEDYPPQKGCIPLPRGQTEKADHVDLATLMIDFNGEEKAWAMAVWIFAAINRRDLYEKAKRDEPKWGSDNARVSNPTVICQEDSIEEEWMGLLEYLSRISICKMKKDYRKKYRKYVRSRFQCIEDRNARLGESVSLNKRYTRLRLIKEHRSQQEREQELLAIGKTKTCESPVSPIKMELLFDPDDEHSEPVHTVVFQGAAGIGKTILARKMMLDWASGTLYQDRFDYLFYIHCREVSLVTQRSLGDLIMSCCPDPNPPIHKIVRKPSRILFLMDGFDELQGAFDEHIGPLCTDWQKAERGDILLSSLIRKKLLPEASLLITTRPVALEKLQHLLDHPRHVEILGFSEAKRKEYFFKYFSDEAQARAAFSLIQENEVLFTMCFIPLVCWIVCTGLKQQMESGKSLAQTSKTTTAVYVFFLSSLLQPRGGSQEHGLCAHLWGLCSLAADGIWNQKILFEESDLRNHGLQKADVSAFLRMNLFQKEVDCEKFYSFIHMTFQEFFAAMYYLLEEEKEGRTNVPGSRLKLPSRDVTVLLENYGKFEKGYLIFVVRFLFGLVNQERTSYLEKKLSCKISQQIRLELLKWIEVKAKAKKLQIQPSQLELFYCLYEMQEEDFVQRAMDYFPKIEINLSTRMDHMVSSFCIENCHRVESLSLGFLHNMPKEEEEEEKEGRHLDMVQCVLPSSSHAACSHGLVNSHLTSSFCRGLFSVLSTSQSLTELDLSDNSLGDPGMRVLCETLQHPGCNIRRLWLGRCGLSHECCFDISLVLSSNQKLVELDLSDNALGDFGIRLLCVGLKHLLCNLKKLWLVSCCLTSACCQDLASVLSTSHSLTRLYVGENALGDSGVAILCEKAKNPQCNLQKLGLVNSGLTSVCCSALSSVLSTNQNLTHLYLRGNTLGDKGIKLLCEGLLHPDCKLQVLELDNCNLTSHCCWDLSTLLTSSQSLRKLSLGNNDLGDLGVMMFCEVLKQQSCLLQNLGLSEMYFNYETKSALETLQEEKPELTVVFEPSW
The amount of IL-1β in the culture supernatant was quantitated with AlphaLISA(registered trademark) Human IL-1β Detection Kit (Product Number: AL220C, Perkin Elmer). Fluorescence intensity was measured with a microplate reader EnSpier (Model number: 2300-00J, Perkin Elmer) or EnSight(Model number: HH34000000, Perkin Elmer) according to procedure manuals attached thereto. Inhibition rates of the test compound-setting wells were calculated on the basis of 100% for the blank-setting wells and 0% for the control-setting wells.
A general note: In Alpha technology, singlet oxygen from a donor bead excites a nearby acceptor bead.
With `Cc1cc(C)c(-n2cc3c(=O)[nH]c(N4CC5COCC5C4)nc3n2)c(C)c1` (centres unmarked) [Example 117], the negative-log IC50 (pIC50) (usually the negative decadic logarithm of the IC50, by convention in mol/L) was 7.34.

`Cc1cc(C)c(-n2cc3c(=O)[nH]c(N4CCC5(CC4)COC5)nc3n2)c(C)c1` [Example 118] gave a pIC50 of 7.36. The pIC50 values of the last two molecules are within 0.2 log units of each other.

Consider `C#Cc1ccc(-n2cc3c(=O)[nH]c(N4CCCC4)nc3n2)c(C)c1` [Example 119], for which the pIC50 was 7.80.

`CCc1ccc(-n2cc3c(=O)[nH]c(N4CCCC4)nc3n2)c(C)c1` [Example 120] showed a negative-log IC50 (pIC50) of 7.72.

Consider `Cc1nc(C(F)(F)F)ccc1-n1cc2c(=O)[nH]c(N3CCOCC3)nc2n1` [Example 121], for which the pIC50 is 6.27.

`Cc1cc(C(F)(F)F)cnc1-n1cc2c(=O)[nH]c(N3CCOCC3)nc2n1` [Example 122] gave a pIC50 of 6.74.

With `Cc1cc(C(F)(F)F)cnc1-n1cc2c(=O)[nH]c(N3CC(F)(F)C3)nc2n1` [Example 123], the pIC50 was 6.85.

Molecule `Cc1cc(C2CC2)cc(C)c1-n1cc2c(=O)[nH]c(N3CCOCC3)nc2n1` [Example 124] gave a pIC50 of 8.52.

`Cc1ccc(-n2cc3c(=O)[nH]c(N4CCOCC4)nc3n2)c(C)c1` [Example 126] had a pIC50 of 7.28.

Turning to `O=c1[nH]c(N2CCCC2)nc2nn(-c3ccc(Cl)cc3Cl)cc12` [Example 127], the pIC50 is 7.89.

`O=c1[nH]c(N2CCOCC2)nc2nn(-c3ccc(C(F)(F)F)cc3Cl)cc12` [Example 128] showed a pIC50 of 7.55.

With `O=c1[nH]c(N2CCCOCC2)nc2nn(-c3ccc(C(F)(F)F)cc3Cl)cc12` [Example 129], the pIC50 was 7.46.

Molecule `CC(=O)c1cc(Br)ccc1-n1cc2c(=O)[nH]c(N3CCOCC3)nc2n1` [Example 131] had a pIC50 of 7.20. Against the preceding molecule, the pIC50 is 0.26 log units lower.

`CC(C)(C)OC(=O)N1CCCN(c2nc3nn(-c4ccc(C(F)(F)F)cc4Cl)cc3c(=O)[nH]2)CC1` [Example 132]: the pIC50 is 7.13. The pIC50 values of the last two molecules are within 0.2 log units of each other.

As for `O=c1[nH]c(N2CCCNCC2)nc2nn(-c3ccc(C(F)(F)F)cc3Cl)cc12` [Example 133], the pIC50 is 7.20.

The molecule `CC(=O)N1CCCN(c2nc3nn(-c4ccc(C(F)(F)F)cc4Cl)cc3c(=O)[nH]2)CC1` [Example 134] had a pIC50 of 7.04. The pIC50 values of the last two molecules are within 0.2 log units of each other.

`CS(=O)(=O)N1CCCN(c2nc3nn(-c4ccc(C(F)(F)F)cc4Cl)cc3c(=O)[nH]2)CC1` [Example 135] showed a pIC50 of 7.37.

`Cc1cc(Br)ccc1-n1cc2c(OC(C)C)nc(N3CCOCC3)nc2n1` [Example 136] had a pIC50 of 6.64.

Take `COc1nc(N2CCN(S(C)(=O)=O)CC2)nc2nn(-c3ccc(Br)cc3C)cc12` [Example 137]: the pIC50 was 6.77.

`Cc1cc(Br)ccc1-n1cc2c(=O)n(C)c(N3CCN(S(C)(=O)=O)CC3)nc2n1` [Example 138] gave a pIC50 of 6.85.

`Cc1cc(Br)ccc1-n1cc2c(=O)[nH]c(N3CCN(S(=O)(=O)C4CC4)CC3)nc2n1` [Example 139]: the pIC50 was 8.28.

On to `Cc1cc(Br)ccc1-n1cc2c(=O)[nH]c(N3CCN(C(=O)C4CC4)CC3)nc2n1` [Example 140], for which the pIC50 is 8.24.

Consider `COCC(=O)N1CCN(c2nc3nn(-c4ccc(Br)cc4C)cc3c(=O)[nH]2)CC1` [Example 141], for which the pIC50 was 8.02.

In turn, `Cc1cc(Br)ccc1-n1cc2c(=O)[nH]c(N3CCCOCC3)nc2n1` [Example 142] showed a pIC50 of 7.66. This pIC50 is 0.36 log units lower than that of the molecule before.

Regarding `COCc1cc(Cl)ccc1-n1cc2c(=O)[nH]c(N3CCOCC3)nc2n1` [Example 143], the pIC50 was 7.23.

In turn, `COCc1cc(Cl)ccc1-n1cc2c(=O)[nH]c(N3CCCC3)nc2n1` [Example 144] gave a pIC50 of 7.62.

`Cc1cc(Br)cc(C)c1-n1cc2c(=O)[nH]c(N3CCCOCC3)nc2n1` [Example 145] showed a negative logarithm of the IC50 (pIC50) of 7.92. Against the preceding molecule, the pIC50 is 0.30 log units higher.

In the case of `Cc1cc(Br)cc(Cl)c1-n1cc2c(=O)[nH]c(N3CCOCC3)nc2n1` [Example 146], the pIC50 was 8.04.

In turn, `Cc1cc(C)c(-n2cc3c(=O)[nH]c(N4CCOCC4)nc3n2)c(Cl)c1` [Example 148] had a pIC50 of 7.72. This pIC50 is 0.32 log units lower than that of the molecule before.

Molecule `Cc1cc(Br)ccc1-n1cc2c(=O)[nH]c(N3CCN(c4ncccn4)CC3)nc2n1` [Example 149] gave a pIC50 of 7.68.

`Cc1c2c(=O)[nH]c(N3CCCC3)nc2nn1-c1ccc(C(F)(F)F)cc1` [Example 151] had a pIC50 of 7.30.

`Cc1cc(Br)ccc1-n1cc2c(=O)[nH]c(N3CCN(C4CC4)C(=O)C3)nc2n1` [Example 152] showed a pIC50 of 7.11.

`Cc1cc(Br)ccc1-n1cc2c(OCCO)nc(N3CCOCC3)nc2n1` [Example 153] had a pIC50 of 6.34. This pIC50 is 0.77 log units lower than that of the molecule before.

For the molecule `COCCOc1nc(N2CCOCC2)nc2nn(-c3ccc(Br)cc3C)cc12` [Example 154], the pIC50 was 6.23. This pIC50 and that of the molecule before are within 0.2 log units of each other.

Turning to `Cc1cc(Br)ccc1-n1cc2c(OCC3CC3)nc(N3CCOCC3)nc2n1` [Example 155], the pIC50 was 6.54.

In turn, `Cc1cc(Br)ccc1-n1cc2c(OCC#N)nc(N3CCOCC3)nc2n1` [Example 156] showed a pIC50 of 6.54.

Consider `O=c1[nH]c(N2CCCC2)nc2nn(-c3ncc(C(F)(F)F)cc3Cl)cc12` [Example 157], for which the pIC50 was 7.48.

`Cc1cc(Cl)cc(CO)c1-n1cc2c(=O)[nH]c(N3CCOCC3)nc2n1` [Example 158] showed a pIC50 of 7.04.

Take `Cc1cc(Cl)cc(C=O)c1-n1cc2c(=O)[nH]c(N3CCOCC3)nc2n1` [Example 160]: the pIC50 is 7.44.

With `COCc1cc(Cl)ccc1-n1cc2c(=O)[nH]c(N3CC(F)(F)C3)nc2n1` [Example 161], the pIC50 is 7.66. Compared with the last molecule, the pIC50 is 0.22 log units higher.

Take `Cc1cc(Br)ccc1-n1cc2c(=O)n(CCO)c(N3CCOCC3)nc2n1` [Example 163]: the pIC50 is 7.33.

On to `Cc1cc(Cl)ccc1-n1cc2c(=O)[nH]c(N3CCOCC3)nc2n1` [Example 164], for which the pIC50 is 7.54.

For the molecule `Cc1cc(Cl)ccc1-n1cc2c(=O)[nH]c(N3CCCOCC3)nc2n1` [Example 165], the pIC50 was 7.54.

As for `Cc1cc(Cl)cc(C)c1-n1cc2c(=O)[nH]c(N3CCOCC3)nc2n1` [Example 166], the pIC50 was 7.80.

`Cc1cc(Cl)cc(C(=O)C2CC2)c1-n1cc2c(=O)[nH]c(N3CCOCC3)nc2n1` [Example 167] gave a pIC50 of 6.37.

The molecule `Cc1cc(Cl)cc(C#N)c1-n1cc2c(=O)[nH]c(N3CCOCC3)nc2n1` [Example 168] gave a pIC50 of 7.22.

`Cc1cc(Br)ccc1-n1cc2c(=O)[nH]c(N3CC4CC(C3)O4)nc2n1` [Example 169] had a pIC50 of 7.77. Compared with the last molecule, the pIC50 is 0.55 log units higher.

On to `Cc1c2c(=O)[nH]c(N3CCCC3)nc2nn1-c1ccc(C(F)(F)F)cc1Cl` [Example 170], for which the pIC50 is 7.06.

`COc1ccc(-n2cc3c(=O)[nH]c(N4CCCC4)nc3n2)c(C)c1` [Example 171] showed a pIC50 of 7.54.

The molecule `Cc1cc(Br)ccc1-n1cc2c(=O)n(CC#N)c(N3CCOCC3)nc2n1` [Example 172] gave a pIC50 of 6.72.

The molecule `Cc1cc(Br)ccc1-n1cc2c(=O)n(CC#N)c(N3CCN(S(C)(=O)=O)CC3)nc2n1` [Example 173] had a pIC50 of 6.92.

`Cc1cc(Br)cc(C(F)(F)F)c1-n1cc2c(=O)[nH]c(N3CCOCC3)nc2n1` [Example 174] showed a pIC50 of 7.92.

Molecule `Cc1cc(C2CC2)cc(C(F)(F)F)c1-n1cc2c(=O)[nH]c(N3CCOCC3)nc2n1` [Example 175] gave a pIC50 of 7.89.

In turn, `O=c1[nH]c(N2CCOCC2)nc2nn(-c3ccc(Cl)cc3C(F)(F)F)cc12` [Example 176] gave a pIC50 of 7.57.

Consider `O=c1[nH]c(N2CCOCC2)nc2nn(-c3ccc(C4CC4)cc3C(F)(F)F)cc12` [Example 177], for which the pIC50 was 8.25.

Regarding `CC(C)(C)OC(=O)N1CC2CN(c3nc4nn(-c5ccc(C(F)(F)F)cc5Cl)cc4c(=O)[nH]3)CC2C1` (centres unmarked) [Example 179], the pIC50 is 7.57.

`O=c1[nH]c(N2CC(CCO)C2)nc2nn(-c3ccc(C(F)(F)F)cc3Cl)cc12` [Example 180] gave a pIC50 of 7.46.

In turn, `O=c1[nH]c(N2CC(F)C2)nc2nn(-c3ccc(C(F)(F)F)cc3Cl)cc12` [Example 181] showed a pIC50 of 7.77.

With `O=c1[nH]c(N2CC(O)C2)nc2nn(-c3ccc(C(F)(F)F)cc3Cl)cc12` [Example 182], the pIC50 is 7.10.

As to `O=c1[nH]c(N2CC3(CC(O)C3)C2)nc2nn(-c3ccc(C(F)(F)F)cc3Cl)cc12` [Example 183], the pIC50 is 7.82.

Molecule `O=c1[nH]c(NC2CCOCC2)nc2nn(-c3ccc(C(F)(F)F)cc3Cl)cc12` [Example 184] showed a pIC50 of 7.17.

As to `CNc1nc2nn(-c3c(C)cc(Br)cc3C)cc2c(=O)[nH]1` [Example 185], the pIC50 is 8.25. This pIC50 lies 1.08 log units higher than the previous one.

Molecule `O=c1[nH]c(N2CC3CNCC3C2)nc2nn(-c3ccc(C(F)(F)F)cc3Cl)cc12` (centres unmarked) [Example 186] gave a pIC50 of 6.64. This pIC50 is 1.61 log units lower than that of the molecule before.

Consider `CC(=O)N1CC2CN(c3nc4nn(-c5ccc(C(F)(F)F)cc5Cl)cc4c(=O)[nH]3)CC2C1` (centres unmarked) [Example 187], for which the pIC50 was 7.42.

With `O=c1[nH]c(N2CCOCC2)nc2nn(-c3c(F)cc(C(F)(F)F)cc3Cl)cc12` [Example 189], the pIC50 was 7.70.

Consider `O=c1[nH]c(N2CCOCC2)nc2nn(-c3c(Cl)cc(C(F)(F)F)cc3OCC3CC3)cc12` [Example 190], for which the pIC50 is 7.39.

The same assay, now with this note: IL-1β production in THP1-Null cells; test compound 0.0024 μM.
In the case of `Cc1cc(C2CC2)cc(C)c1-n1cc2c(=O)[nH]c(N3CCN(S(C)(=O)=O)CC3)nc2n1` [Example 125], the inhibition (commonly the change of the read-out against control, counted positive when it falls) at 0.0024 µM was 52%.

Consider `Cc1cc(C2CC2)cc(Cl)c1-n1cc2c(=O)[nH]c(N3CCOCC3)nc2n1` [Example 147], for which 0.0024 µM produced 54% inhibition.
